Test results: patent US6399590B2, “Phosphoglycolipid and methods for its use” (Corixa Corporation, priority 1998, dated 2002)

How the values were obtained:
[1] = tested on: IL-8 secretion by THP-1 cells; test: IL-8 secretion in THP-1 cells (ELISA); type: cell-based, human; details: any concentration between 1 ng/ml and 10 μg/ml; supernatants at 4, 16 and 24 hours
Description: The human myelomonocytic cell line THP-1 is commonly used for the analysis of the proinflammatory status of various compounds. THP-1 cells (American Type Culture Collections Cat. No. 202-TIB) were grown in RPMI 1640, 10% heat inactivated fetal bovine serum (FBS) and […] β-mercaptoethanol to a cell density of between 4×10^5/ml and 7×10^5/ml. Cells were removed from culture and resuspended at 1×10^6 cells/ml in RPMI 1640 containing 5% fetal bovine serum. Resuspended cells were then pipetted into sterile, disposable polystyrene 150×25 mm petri dishes and treated with the natural maturational agent 1α, 25-dihyroxyvitamin D3 at 1×10^−7 M between 24 and 72 hours depending on the degree of maturation desired. These maturationally “pretreated” cells were then washed 3× in RPMI 1640 containing more than 2% but less than 10% fetal bovine serum. After the third wash cells were resuspended in RPMI 1640 containing 5% FBS plus 2% human AB sera (Irvine Scientific) at 5×10^5 cells/ml and transferred at 2 ml per well in a tissue culture grade, flat bottom polystyrene 24 well plate. […] Cytokine concentration in the THP-1 culture supernatants were quantified using standard human cytokine ELISA kits from R&D Laboratories. […]

[2] = tested on: rabbit model of regional myocardial ischemia; test: Infarct size in rabbits, 30 min coronary occlusion and 3 h reperfusion; type: in vivo, New Zealand white rabbits
Description: Male New Zealand white rabbits weighing 2.5-3.5 kg were injected with vehicle or L34 24 h before the experiment. L34 was formulated in vehicle composed of 40% propylene glycol, 10% ethanol in water. For the experiment, animals were intramuscularly anesthetized with ketamine (35 mg/kg) and xylazine (5 mg/kg). Tracheotomy was performed and the animals intubated with a cuffed endotracheal tube (Portex, 4.0 mm internal diameter) and then mechanically ventilated with room air on a positive pressure respirator Q Industries, Mobile, Ala.). Ventilatory rate was 27-35 breaths per min, and tidal volume was approximately 10-17 ml. […] The EKG was recorded throughout the experiment via lead II of the standard elctrocardiogram. […]
At the end of each experiment, the ligature around the large marginal branch of the circumflex artery was retightened to reocclude the artery and approximately 4 ml of 10% Evans blue dye was injected into the jugular vein until the eyes turned blue. […] The area at risk was determined by negative staining and calculated as a percentage of the portion of left ventricle containing the risk area (AAR/LV %) and infarct size as a percentage of area at risk (IS/AAR %). […] Regions of infarcted tissue and the risk zone were determined by computer morphometry using Bioquant imaging software and the percentage of infarcted area and risk area calculated.

CCCCCCCCCCCCCCCCCC(=O)O[C@H](CCCCCCCCCCC)CC(=O)N[C@H]1[C@H](OC[C@H]2OC(O)[C@H](NC(=O)C[C@@H](CCCCCCCCCCC)OC(=O)CCCCCCCCCCCCCCC)[C@@H](O)[C@@H]2O)O[C@H](CO)[C@@H](OP(=O)(O)O)[C@@H]1OC(=O)C[C@@H](CCCCCCCCCCC)OC(=O)CCCCCCCCCCCCC (stereo partly drawn) [L34, 2-Deoxy-6-O-[2-deoxy-4-O-phosphono-3-O-[(R)-3-tetradecanoyloxytetradecanoyl]-2-[(R)-3-octadecanoyloxytetradecanoylamino]-β-D-glucopyranosyl]-2-[(R)-3-hexadecanoyloxytetradecanoylamino]-D-glucopyranose]
IL-8 secretion [1]: did not induce detectable | reduction in infarct size (percentage of area at risk) compared to controls ([2]; 35 μg/kg given 24 h before ischemia, FIG. 1): approximately 70% | reduction in infarct size, dose response ([2]; doses of 10 to 35 μg/kg given 24 h before ischemia, FIG. 2): > 50%
